According to ChEMBL document CHEMBL1201862, “PubChem BioAssay data set” (2004):
The source made the active and inactive calls.

Legend:
CHO = CHO cell viability loss, potency – luminescence, cytotoxicity control for TLR9-MyD88 binding inhibitor project, dose response (AID 588339); type: functional, cell-based, hamster; conditions: Cricetulus griseus;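 further: CHO cells stably coexpressing TLR9 and MyD88 fusions from primary screen; compound exposure lasted 48 hours before viability readout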
Beta Lactamase = Beta Lactamase (Pseudomonas aeruginosa, UniProt Q932Y6); experiment: BLA reporter interference, concentration series – BLA reporter cells, FRET fluorescence, artefact control for TLR9-MyD88 binding inhibitor project, dose response (AID 588341); type: cell-based;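 further: cell based assay in CHO-K1 cells stably expressing beta-lactamase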
Sequence of Beta Lactamase (Q932Y6 whole entry): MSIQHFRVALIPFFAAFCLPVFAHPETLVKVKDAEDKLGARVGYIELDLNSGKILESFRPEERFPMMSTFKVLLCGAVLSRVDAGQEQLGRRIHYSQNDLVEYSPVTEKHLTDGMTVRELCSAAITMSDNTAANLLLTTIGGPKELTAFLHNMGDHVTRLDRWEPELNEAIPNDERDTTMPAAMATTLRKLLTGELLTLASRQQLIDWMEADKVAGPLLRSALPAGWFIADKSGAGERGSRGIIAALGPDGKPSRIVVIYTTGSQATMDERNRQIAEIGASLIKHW

HEK293 [1] = experiment: membrane integrity loss in HEK cells – cell-based, fluorescence, cytotoxicity control for IDE activator project, dose response (AID 588440); type: functional; conditions: Homo sapiens;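 further: cytotoxicity by LDH release measuring loss of membrane integrity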
HEK293 [2] = experiment: optical interference in Abeta FP readout, dose response, artefact control for IDE activator project, biochemical, fluorescence polarization (AID 588442); type: functional, cell-based; conditions: Homo sapiens
Insulin-degrading enzyme [3] = biological target: T1, Insulin-degrading enzyme (Homo sapiens, UniProt P14735); experiment: recombinant IDE activation, cell-free – biochemical, fluorescence polarization, counter-screen for IDE activator project, dose response (AID 588681)
T1 sequence (P14735 whole entry): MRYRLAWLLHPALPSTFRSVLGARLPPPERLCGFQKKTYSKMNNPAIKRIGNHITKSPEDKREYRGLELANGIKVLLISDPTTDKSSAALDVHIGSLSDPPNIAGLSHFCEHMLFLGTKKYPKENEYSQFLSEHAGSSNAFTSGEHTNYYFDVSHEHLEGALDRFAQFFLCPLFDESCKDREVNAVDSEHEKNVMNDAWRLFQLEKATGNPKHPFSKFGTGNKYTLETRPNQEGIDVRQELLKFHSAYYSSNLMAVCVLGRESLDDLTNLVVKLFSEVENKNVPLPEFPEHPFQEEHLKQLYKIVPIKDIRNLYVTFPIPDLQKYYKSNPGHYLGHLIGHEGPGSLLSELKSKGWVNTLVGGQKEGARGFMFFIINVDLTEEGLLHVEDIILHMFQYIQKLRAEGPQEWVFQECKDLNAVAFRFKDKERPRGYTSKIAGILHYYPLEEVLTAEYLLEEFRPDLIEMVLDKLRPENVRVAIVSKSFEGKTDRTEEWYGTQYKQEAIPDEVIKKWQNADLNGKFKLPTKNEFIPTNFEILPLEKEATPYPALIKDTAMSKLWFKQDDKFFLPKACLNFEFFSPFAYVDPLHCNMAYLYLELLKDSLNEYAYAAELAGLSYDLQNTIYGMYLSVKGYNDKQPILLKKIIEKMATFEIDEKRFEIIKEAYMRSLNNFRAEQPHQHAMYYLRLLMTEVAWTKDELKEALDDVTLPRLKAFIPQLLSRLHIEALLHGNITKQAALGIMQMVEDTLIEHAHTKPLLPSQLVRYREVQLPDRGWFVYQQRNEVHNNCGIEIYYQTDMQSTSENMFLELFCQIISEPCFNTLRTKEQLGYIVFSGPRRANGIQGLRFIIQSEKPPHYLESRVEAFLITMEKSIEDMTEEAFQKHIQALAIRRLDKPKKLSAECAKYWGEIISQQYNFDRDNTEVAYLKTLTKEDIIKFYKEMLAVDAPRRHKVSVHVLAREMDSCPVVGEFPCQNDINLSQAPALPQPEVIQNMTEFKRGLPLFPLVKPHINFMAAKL

Insulin-degrading enzyme [4] = biological target: T1, Insulin-degrading enzyme; experiment: cellular IDE activation of Abeta substrate cleavage – fluorescence polarization, HEK cells, dose response (AID 588439); type: functional, cell-based
[5] = biological target: UDP-galactopyranose mutase (Mycobacterium tuberculosis, UniProt P9WIQ1); experiment: Inhibitors of Mycobacterium tuberculosis UDP-galactopyranose mutase (UGM) enzyme Measured in Biochemical System Using Plate Reader - 2105-02_Inhibitor_Dose_CherryPick_Activity. [Related pubchem assays (depositor defined):AID504439]
Sequence of UDP-galactopyranose mutase (P9WIQ1 whole entry): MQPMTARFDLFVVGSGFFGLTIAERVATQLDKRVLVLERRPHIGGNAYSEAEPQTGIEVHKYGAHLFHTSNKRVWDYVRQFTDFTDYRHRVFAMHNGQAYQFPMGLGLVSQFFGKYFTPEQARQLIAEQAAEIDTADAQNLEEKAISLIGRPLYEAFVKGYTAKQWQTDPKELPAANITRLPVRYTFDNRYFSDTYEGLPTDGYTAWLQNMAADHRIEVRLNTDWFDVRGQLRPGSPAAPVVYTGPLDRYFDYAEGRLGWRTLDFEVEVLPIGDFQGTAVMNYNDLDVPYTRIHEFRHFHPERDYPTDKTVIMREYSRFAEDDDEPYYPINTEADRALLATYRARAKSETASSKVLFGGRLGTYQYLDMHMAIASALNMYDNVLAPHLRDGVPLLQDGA

[6] = biological target: T2, Corticotropin-releasing factor receptor 2/Corticotropin-releasing factor-binding protein (Homo sapiens, UniProt P24387+Q13324); experiment: activators of CRF receptor 2 with binding protein – uHTS hits, confirmation (AID 602473); type: functional; conditions: read-out: EC50_Mean
T2 sequence (Q13324 whole entry): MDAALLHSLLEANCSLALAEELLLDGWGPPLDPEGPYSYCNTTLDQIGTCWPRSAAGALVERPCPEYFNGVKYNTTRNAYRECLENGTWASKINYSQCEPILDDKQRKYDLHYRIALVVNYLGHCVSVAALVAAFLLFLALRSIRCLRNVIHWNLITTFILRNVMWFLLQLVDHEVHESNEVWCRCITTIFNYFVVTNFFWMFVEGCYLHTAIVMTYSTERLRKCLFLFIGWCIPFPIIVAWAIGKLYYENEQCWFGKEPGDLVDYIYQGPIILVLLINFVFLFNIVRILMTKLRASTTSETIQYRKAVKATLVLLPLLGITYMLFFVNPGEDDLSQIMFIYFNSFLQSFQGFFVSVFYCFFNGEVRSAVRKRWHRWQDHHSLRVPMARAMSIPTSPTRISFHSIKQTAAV
T2 sequence (P24387 whole entry): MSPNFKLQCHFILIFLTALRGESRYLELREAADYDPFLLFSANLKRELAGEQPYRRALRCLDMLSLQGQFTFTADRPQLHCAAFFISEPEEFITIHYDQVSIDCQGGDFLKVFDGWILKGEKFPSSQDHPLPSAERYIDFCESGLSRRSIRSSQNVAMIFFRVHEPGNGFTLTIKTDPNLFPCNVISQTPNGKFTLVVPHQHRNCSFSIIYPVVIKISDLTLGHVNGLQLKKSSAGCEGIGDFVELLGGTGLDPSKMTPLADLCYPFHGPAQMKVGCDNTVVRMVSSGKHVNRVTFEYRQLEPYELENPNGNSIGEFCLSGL

[7] = biological target: Low molecular weight phosphotyrosine protein phosphatase (Homo sapiens, UniProt P24666); type: functional; conditions: read-out: IC50_Mean;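 further: Dose-response confirmation assay measuring inhibition of LMPTP enzyme activity by fluorescence intensity read-out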
Sequence of Low molecular weight phosphotyrosine protein phosphatase (P24666 whole entry): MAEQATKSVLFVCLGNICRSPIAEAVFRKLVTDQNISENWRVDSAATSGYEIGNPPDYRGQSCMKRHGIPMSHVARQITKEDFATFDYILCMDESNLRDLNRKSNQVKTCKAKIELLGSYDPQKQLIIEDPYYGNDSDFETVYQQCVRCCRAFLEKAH

cells [8] = type: functional
Streptococcus = experiment: GAS UMAA2166 growth inhibition – luminescence, BacTiterGlo, counter-screen for streptokinase expression inhibitor project, dose response (AID 1915); type: functional, organism-based;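 further: potency for reduction of bacterial viability or growth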
H9c2 = experiment: cells; type: functional, cell-based; conditions: Rattus norvegicus, H9c2, Myocardium;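 further: confirmatory concentration-response retest of ultra-high-throughput screening hits for modulation of myocardial damage; cell death induced by hydrogen peroxide oxidative stress; compound pretreatment for 60 min then peroxide exposure for 2 h; potency is for protecting the cells against peroxide damage rather than for killing them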
[9] = THP-1 cell cytotoxicity, dose response, cytotoxicity control for non-replicating M. tuberculosis project (AID 489025); type: functional
[10] = system: Streptococcus sp. 'group A'; experiment: Streptococcus pyogenes SK(-)GAS viability under kanamycin – luminescence, BacTiterGlo, confirmation, counter-screen for streptokinase expression inhibitor project, dose response (AID 1900); type: functional, organism-based
[11] = biological target: T3, Heat shock factor protein 1 (Mus musculus, UniProt P38532); experiment: decrease of HSF1-responsive luciferase luminescence – cell-based, NIH3T3, dose retest, confirmation (AID 2382); type: functional;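 further: NIH3T3 fibroblasts with HSF1-driven luciferase reporter stressed by proteasome inhibitor MG132; luminescence from HSF1-driven luciferase expression after 8 hours of MG132 stress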
T3 sequence (P38532 whole entry): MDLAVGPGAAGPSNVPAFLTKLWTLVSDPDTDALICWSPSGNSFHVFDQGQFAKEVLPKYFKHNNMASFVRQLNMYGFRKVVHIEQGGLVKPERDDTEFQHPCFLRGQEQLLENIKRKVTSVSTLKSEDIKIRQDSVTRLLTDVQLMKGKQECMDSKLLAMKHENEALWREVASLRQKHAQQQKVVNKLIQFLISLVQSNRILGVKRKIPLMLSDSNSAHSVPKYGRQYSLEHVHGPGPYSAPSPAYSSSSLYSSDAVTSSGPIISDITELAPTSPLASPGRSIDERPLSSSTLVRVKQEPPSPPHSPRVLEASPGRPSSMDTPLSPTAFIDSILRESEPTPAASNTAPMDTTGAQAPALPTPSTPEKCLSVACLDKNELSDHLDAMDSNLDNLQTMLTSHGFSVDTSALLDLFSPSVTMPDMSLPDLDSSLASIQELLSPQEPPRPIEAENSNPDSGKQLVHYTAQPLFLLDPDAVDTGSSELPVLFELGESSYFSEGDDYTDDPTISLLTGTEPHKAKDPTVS

INS1 = experiment: INS-1E survival protection against cytokine death – cell-based, luminescence, retest, dose response (AID 449756); type: functional; conditions: Rattus norvegicus;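 further: cell death triggered by IL-1 beta plus TNF-alpha plus IFN-gamma mixture; protective hits raise ATP signal compared with cytokine alone wells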
cells [12] = type: functional, cell-based
[13] = biological target: SWI/SNF-related matrix-associated actin-dependent regulator of chromatin subfamily A member 2 (Homo sapiens, UniProt P51531); experiment: Luminescence-based cell-based high throughput dose response assay to identify activators of the function of SWI/SNF related, matrix associated, actin dependent regulator of chromatin, subfamily a, member 2 (SMARCA2, BRM).; type: functional
Sequence of SWI/SNF-related matrix-associated actin-dependent regulator of chromatin subfamily A member 2 (P51531 whole entry): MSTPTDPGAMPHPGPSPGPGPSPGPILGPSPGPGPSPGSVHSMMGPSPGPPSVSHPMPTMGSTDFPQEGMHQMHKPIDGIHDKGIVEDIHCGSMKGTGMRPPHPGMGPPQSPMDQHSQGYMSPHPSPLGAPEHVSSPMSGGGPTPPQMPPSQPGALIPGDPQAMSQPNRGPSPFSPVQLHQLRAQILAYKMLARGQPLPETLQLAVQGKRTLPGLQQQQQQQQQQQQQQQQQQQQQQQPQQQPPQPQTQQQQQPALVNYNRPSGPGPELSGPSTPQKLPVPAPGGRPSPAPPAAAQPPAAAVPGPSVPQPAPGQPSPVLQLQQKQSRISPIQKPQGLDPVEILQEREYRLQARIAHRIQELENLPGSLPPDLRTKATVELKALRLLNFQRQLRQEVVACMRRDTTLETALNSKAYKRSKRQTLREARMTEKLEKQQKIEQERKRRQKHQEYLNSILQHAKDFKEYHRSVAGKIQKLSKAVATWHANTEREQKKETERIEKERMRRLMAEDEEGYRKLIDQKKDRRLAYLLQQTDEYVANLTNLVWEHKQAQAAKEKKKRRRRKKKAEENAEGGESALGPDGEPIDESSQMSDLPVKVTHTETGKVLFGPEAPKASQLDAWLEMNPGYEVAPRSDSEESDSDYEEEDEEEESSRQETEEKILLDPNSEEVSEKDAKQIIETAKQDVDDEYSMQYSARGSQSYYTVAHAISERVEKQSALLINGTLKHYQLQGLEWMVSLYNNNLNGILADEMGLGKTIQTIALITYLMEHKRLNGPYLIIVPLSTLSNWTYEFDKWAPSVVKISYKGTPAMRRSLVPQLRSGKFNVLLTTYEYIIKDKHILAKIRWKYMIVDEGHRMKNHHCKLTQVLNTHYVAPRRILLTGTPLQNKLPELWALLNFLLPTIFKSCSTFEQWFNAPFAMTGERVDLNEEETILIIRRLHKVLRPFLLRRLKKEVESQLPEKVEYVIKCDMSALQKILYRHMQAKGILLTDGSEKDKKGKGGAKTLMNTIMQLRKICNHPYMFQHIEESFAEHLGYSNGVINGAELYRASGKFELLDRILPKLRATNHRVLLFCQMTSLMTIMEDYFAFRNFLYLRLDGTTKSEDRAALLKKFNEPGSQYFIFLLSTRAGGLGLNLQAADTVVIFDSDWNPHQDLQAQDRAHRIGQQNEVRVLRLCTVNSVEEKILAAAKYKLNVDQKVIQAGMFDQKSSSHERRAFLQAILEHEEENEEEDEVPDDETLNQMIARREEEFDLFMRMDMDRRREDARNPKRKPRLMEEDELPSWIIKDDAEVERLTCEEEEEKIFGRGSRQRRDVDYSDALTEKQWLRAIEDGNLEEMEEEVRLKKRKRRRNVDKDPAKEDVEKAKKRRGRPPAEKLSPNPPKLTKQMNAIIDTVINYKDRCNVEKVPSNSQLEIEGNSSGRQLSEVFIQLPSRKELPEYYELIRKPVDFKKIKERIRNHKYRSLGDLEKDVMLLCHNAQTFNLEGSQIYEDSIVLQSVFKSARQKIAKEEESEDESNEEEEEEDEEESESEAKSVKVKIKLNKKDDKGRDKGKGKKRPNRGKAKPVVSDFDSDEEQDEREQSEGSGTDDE

[14] = Luminescence Cell-Based Dose Response HTS to Identify Activators of Luciferase Translation or Activity in H4 […] Cells. [Related pubchem assays: 1829 (Project Summary), 1814 (Primary HTS)]; type: functional
[15] = Trypanosoma cruzi growth suppression in host cells – NIH3T3 host cells, beta-gal luminescence, confirmation (AID 2044); type: functional, cell-based;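 further: intracellular parasites grown in NIH/3T3 mouse fibroblasts as host cells; luminescent beta-galactosidase reporter signal from transgenic T. cruzi replicating inside host cells; inhibitors lower the luminescence signal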
[16] = NIH3T3 cell viability loss – ATP luminescence, mouse fibroblasts, counter-screen, dose response (AID 2010); type: functional, cell-based;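 further: cells exposed to compound for about 90 hours before reading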
[17] = Luminescence Cell-Based Dose Confirmation HTS to Identify Activators of 5'UTR Stem-Loop Driven Alpha-Synuclein mRNA Translation in H4 Neuroglioblastoma Cells. [Related pubchem assays: 1829 (Project Summary), 1814 (Primary HTS)]; type: functional
H4 = experiment: Luminescence Cell-Based Dose Response HTS to Identify Activators of 5'UTR Stem-Loop Driven Prion Protein mRNA Translation in H4 Neuroglioblastoma Cells. [Related pubchem assays: 1829 (Project Summary), 1814 (Primary HTS)]; type: functional; conditions: Homo sapiens
[18] = biological target: DNA (cytosine-5)-methyltransferase 1 (Homo sapiens, UniProt P26358); experiment: inhibition of DNA methylation by DNMT1 – biochemical, fluorescent molecular beacon, confirmation (AID 602386); type: functional
Sequence of DNA (cytosine-5)-methyltransferase 1 (P26358 whole entry): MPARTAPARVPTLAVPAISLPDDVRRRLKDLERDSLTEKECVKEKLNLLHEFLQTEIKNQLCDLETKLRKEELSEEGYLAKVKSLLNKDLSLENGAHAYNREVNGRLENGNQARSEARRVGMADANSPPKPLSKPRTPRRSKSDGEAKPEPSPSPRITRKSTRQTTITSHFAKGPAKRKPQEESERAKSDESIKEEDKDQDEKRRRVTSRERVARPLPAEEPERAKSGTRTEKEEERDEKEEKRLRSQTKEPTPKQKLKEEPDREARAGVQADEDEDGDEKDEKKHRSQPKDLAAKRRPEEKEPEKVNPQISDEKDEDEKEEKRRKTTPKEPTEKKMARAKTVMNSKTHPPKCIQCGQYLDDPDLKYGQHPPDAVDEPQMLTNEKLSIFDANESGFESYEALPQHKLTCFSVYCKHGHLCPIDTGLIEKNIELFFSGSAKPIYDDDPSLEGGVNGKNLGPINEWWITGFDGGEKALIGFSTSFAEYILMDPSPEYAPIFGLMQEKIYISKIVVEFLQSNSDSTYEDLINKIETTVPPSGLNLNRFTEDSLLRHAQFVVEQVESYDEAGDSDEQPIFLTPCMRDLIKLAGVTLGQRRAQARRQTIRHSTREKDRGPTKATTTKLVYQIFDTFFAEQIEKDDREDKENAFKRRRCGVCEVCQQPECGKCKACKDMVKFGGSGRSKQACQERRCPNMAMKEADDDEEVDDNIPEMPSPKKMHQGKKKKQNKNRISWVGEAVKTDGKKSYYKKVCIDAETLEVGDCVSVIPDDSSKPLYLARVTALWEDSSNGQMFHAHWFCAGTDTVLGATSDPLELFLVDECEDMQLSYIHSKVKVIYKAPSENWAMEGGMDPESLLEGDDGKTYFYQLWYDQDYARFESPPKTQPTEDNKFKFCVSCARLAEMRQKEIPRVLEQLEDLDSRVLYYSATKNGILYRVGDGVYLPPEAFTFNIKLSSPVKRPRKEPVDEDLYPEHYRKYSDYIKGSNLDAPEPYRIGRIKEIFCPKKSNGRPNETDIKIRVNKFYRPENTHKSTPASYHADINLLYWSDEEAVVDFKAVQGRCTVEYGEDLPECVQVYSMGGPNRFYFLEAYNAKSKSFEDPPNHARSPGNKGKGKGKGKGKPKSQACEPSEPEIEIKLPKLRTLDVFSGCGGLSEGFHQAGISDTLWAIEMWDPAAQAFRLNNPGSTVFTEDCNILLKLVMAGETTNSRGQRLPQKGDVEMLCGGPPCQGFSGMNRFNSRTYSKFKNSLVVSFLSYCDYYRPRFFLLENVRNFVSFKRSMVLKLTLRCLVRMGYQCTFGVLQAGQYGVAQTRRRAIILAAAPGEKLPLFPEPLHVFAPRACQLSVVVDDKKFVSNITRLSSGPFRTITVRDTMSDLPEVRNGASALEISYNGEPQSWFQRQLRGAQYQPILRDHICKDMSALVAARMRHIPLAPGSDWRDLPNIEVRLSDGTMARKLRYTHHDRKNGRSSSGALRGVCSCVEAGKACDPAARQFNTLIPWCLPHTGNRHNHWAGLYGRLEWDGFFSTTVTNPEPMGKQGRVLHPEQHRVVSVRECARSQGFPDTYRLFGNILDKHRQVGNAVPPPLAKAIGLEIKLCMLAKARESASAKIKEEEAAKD

[19] = Counterscreen for activators of the function of SWI/SNF related, matrix associated, actin dependent regulator of chromatin, subfamily a, member 2 (SMARCA2, BRM): Luminescence-based cell-based high throughput dose response assay to identify non-selective compounds using the VP16 reporter assay.; type: functional
[20] = biological target: T4, Short transient receptor potential channel 4 (Mus musculus, UniProt Q9QUQ5); experiment: block of DAMGO-driven TRPC4 calcium entry – cell-based, HEK293 TRPC4/mu-opioid, Fluo-4 calcium, dose response (AID 434942); type: functional;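 further: potency of inhibitors blocking the TRPC4 calcium response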
T4 sequence (Q9QUQ5 whole entry): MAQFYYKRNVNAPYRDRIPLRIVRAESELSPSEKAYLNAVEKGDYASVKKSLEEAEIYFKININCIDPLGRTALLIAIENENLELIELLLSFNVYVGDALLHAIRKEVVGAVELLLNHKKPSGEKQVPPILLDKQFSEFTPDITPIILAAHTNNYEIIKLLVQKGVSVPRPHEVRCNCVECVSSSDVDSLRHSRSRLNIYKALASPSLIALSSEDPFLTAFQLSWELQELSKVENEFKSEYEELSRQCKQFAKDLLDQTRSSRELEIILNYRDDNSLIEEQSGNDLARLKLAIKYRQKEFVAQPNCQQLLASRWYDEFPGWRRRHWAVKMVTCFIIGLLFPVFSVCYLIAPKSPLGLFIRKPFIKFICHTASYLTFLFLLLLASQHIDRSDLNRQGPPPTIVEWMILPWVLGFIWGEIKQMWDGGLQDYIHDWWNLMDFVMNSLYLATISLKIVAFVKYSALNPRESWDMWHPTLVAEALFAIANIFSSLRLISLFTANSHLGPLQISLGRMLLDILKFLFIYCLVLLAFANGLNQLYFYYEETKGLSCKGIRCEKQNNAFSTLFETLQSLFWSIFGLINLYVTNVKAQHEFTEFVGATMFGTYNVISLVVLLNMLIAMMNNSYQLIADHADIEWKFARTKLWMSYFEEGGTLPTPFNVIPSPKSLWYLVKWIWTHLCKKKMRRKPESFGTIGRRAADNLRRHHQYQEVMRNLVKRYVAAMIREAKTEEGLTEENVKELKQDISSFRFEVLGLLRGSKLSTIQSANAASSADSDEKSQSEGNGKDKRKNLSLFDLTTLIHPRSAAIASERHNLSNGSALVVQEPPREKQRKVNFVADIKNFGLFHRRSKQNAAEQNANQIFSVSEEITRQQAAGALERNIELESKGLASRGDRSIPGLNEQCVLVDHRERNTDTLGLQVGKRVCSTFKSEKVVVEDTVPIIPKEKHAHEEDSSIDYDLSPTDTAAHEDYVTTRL

cells [21] = type: functional, cell-based; remark: listed apart in the source

Nc1ccc2c(C(F)(F)F)cc(=O)oc2c1
IC50 (CHO): > 49.7 µM (inactive)
IC50 (Beta Lactamase): 4.77 µM (active)

COCO/C=C(\NC(C)=O)c1ccccc1
IC50 (HEK293 [1]): > 89.3 µM (inactive)
EC50 (HEK293 [2]): > 56 µM (inactive)
EC50 (Insulin-degrading enzyme [3]): > 54.7 µM (inactive)
EC50 (Insulin-degrading enzyme [4]): > 54.7 µM (inactive)

O=C(NC1CCCCC1)c1cccc2c1C(=O)c1ccc(N3CCC(Cc4ccccc4)CC3)cc1S2(=O)=O
AC50 [5]: 72.3 µM (active)
IC50 (CHO): > 49.7 µM (inactive)
IC50 (Beta Lactamase): 3.87 µM (active)
EC50 [6]: 6.47 µM (active)

CCn1cc(C(=O)O)c(=O)c2cc(F)c(N3CCN(C(=S)NC(=O)c4ccccc4)CC3)cc21
IC50 [7]: 15.4 µM (active)
IC50 (cells [8]): 42.6 µM (active)

O=c1c(O)c(-c2cccs2)oc2ccc(Cl)cc12
IC50 (HEK293 [1]): > 89.2 µM (inactive)
EC50 (Streptococcus): 7.38 µM (active)
EC50 (HEK293 [2]): > 54.7 µM (inactive)
IC50 (H9c2): > 79 µM (inactive)
EC50 (Insulin-degrading enzyme [3]): > 54.7 µM (inactive)
EC50 (Insulin-degrading enzyme [4]): > 54.7 µM (inactive)
CC50 [9]: > 40 µM (active)
IC50 (cells [8]): 13.8 µM (active)
EC50 [10]: 2.11 µM (active)

COc1ccc(/C=C(\C#N)C(=O)Nc2cc(C)c(Cl)cc2OC)cc1O
IC50 (HEK293 [1]): 12.6 µM (inactive)
EC50 (HEK293 [2]): > 55.9 µM (inactive)
EC50 (Insulin-degrading enzyme [3]): > 54.7 µM (inactive)
EC50 (Insulin-degrading enzyme [4]): > 54.7 µM (inactive)
EC50 [11]: > 195 µM (not active)

CCN(CC)CCn1c2ccccc2c2cnc(N)c(C#N)c21
AC50 (INS1): 3.09 µM (active)
EC50 (cells [12]): > 350 µM (not active)
EC50 [13]: > 3.38 µM (active)
EC50 [14]: 21 µM (active)
EC50 [15]: 1.21 µM (active)
EC50 [16]: 9.47 µM (active)
EC50 [17]: 10.2 µM (active)
EC50 (H4): > 120 µM (not active)
IC50 [18]: > 99 µM (inactive)
EC50 [19]: > 91.2 µM (inactive)
EC50 [20]: 4.73 µM (active)
EC50 (cells [21]): > 350 µM (not active)
